Measured values: ChEMBL document CHEMBL2074304, “Primary active transport of peptidic endothelin antagonists by rat hepatic canalicular membrane” (J Pharmacol Exp Ther, 1999)
Square brackets hold non-standard residues; d marks the D form. Peptide text beside a SMILES is read from it. * marks the point of attachment. dGly(2-thienyl) = N[C@@H](C(=O)O)c1cccs1; Moc = COC(=O)*

How the values were obtained:
Type in all cases: functional, cell membranes, Sprague-Dawley, Bile canalicular membrane vesicle
[1] = biological target: T1, ATP-binding cassette sub-family C member 2 (Rattus norvegicus, UniProt Q63120); test: TP_TRANSPORTER: inhibition of BQ-485 uptake in bile canalicular membrane vesicles from SD rat
[2] = biological target: T1, ATP-binding cassette sub-family C member 2; test: TP_TRANSPORTER: inhibition of BQ-123 uptake in bile canalicular membrane vesicles from SD rat
[3] = substrate: [H][C@@]12CCCN1C(=O)[C@@H](CC(=O)O)NC(=O)[C@@H](Cc1c[nH]c3ccccc13)NC(=O)[C@H](CC(C)C)NC(=O)[C@@H](c1cccs1)NC2=O; test: (§1) TP_TRANSPORTER: uptake in bile canalicular membrane vesicles from SD rat
[4] = substrate: CC(C)C[C@H](NC(=O)N1CCCCCC1)C(=O)N[C@H](Cc1c[nH]c2ccccc12)C(=O)N[C@H](Cc1c[nH]c2ccccc12)C(=O)O; test: as §1
[5] = substrate: CC(C)C[C@@H]1NC(=O)[C@@H](C(C)C)NC(=O)[C@@H]2CCCN2C(=O)[C@@H](CC(=O)O)NC(=O)[C@@H](Cc2c[nH]c3ccccc23)NC1=O; test: as §1

| Molecule | Ki [2] [µM] | also measured |
| --- | --- | --- |
| CC(C)C[C@@H]1NC(=O)[C@@H](C(C)C)NC(=O)[C@@H]2CCCN2C(=O)[C@@H](CC(=O)O)NC(=O)[C@@H](Cc2c[nH]c3ccccc23)NC1=O [BQ-123] (cyclo(L[dW][dD]P[dV])) | – | Ki [1]: 84.1 µM |
| COC(=O)n1cc(C[C@H]2NC(=O)[C@H](CC(C)C)NC(=O)[C@@H](C(C)C)NC(=O)[C@@H]3CCCN3C(=O)[C@@H](CC(=O)O)NC2=O)c2ccccc21 (cyclo(L[dW](Moc)[dD]P[dV])) | 54.1 | – |
| CC(C)C[C@@H]1NC(=O)[C@@H](c2cccs2)NC(=O)[C@@H]2CCCN2C(=O)[C@@H](CC(=O)O)NC(=O)[C@@H](Cc2c[nH]c3ccccc23)NC1=O (cyclo(L[dW][dD]P[dGly(2-thienyl)])) | 65.5 | – |
| CC(C)C[C@@H]1NC(=O)[C@@H](C(C)C)NC(=O)[C@@H]2C[C@@H](OC(=O)[C@H](CCCCN)N(C)C)CN2C(=O)[C@@H](CC(=O)O)NC(=O)[C@@H](Cc2c[nH]c3ccccc23)NC1=O | 85.4 | – |
| ATP-binding cassette sub-family C member 2 (Rattus norvegicus) (protein) MDKFCNSTFWDLSLLESPEADLPLCFEQTVLVWIPLGFLWLLAPWQLYSVYRSRTKRSSITKFYLAKQVFVVFLLILAAIDLSLALTEDTGQATVPPVRYTNPILYLCTWLLVLAVQHSRQWCVRKNSWFLSLFWILSVLCGVFQFQTLIRALLKDSKSNMAYSYLFFVSYGFQIVLLILTAFSGPSDSTQTPSVTASFLSSITFSWYDRTVLKGYKHPLTLEDVWDIDEGFKTRSVTSKFEAAMTKDLQKARQAFQRRLQKSQRKPEATLHGLNKKQSQSQDVLVLEEAKKKSEKTTKDYPKSWLIKSLFKTFHVVILKSFILKLIHDLLVFLNPQLLKLLIGFVKSSNSYVWFGYICAILMFAVTLIQSFCLQSYFQHCFVLGMCVRTTVMSSIYKKALTLSNLARKQYTIGETVNLMSVDSQKLMDATNYMQLVWSSVIQITLSIFFLWRELGPSILAGVGVMVLLIPVNGVLATKIRNIQVQNMKNKDKRLKIMNEILSGIKILKYFAWEPSFQEQVQGIRKKELKNLLRFGQLQSLLIFILQITPILVSVVTFSVYVLVDSANVLNAEKAFTSITLFNILRFPLSMLPMVTSSILQASVSVDRLERYLGGDDLDTSAIRRVSNFDKAVKFSEASFTWDPDLEATIQDVNLDIKPGQLVAVVGTVGSGKSSLVSAMLGEMENVHGHITIQGSTAYVPQQSWIQNGTIKDNILFGSEYNEKKYQQVLKACALLPDLEILPGGDMAEIGEKGINLSGGQKQRVSLARAAYQDADIYILDDPLSAVDAHVGKHIFNKVVGPNGLLAGKTRIFVTHGIHFLPQVDEIVVLGKGTILEKGSYRDLLDKKGVFARNWKTFMKHSGPEGEATVNNDSEAEDDDDGLIPTMEEIPEDAASLAMRRENSLRRTLSRSSRSSSRRGKSLKNSLKIKNVNVLKEKEKEVEGQKLIKKEFVETGKVKFSIYLKYLQAVGWWSILFIILFYGLNNVAFIGSNLWLSAWTSDSDNLNGTNNSSSHRDMRIGVFGALGLAQGICLLISTLWSIYACRNASKALHGQLLTNILRAPMRFFDTTPTGRIVNRFSGDISTVDDLLPQTLRSWMMCFFGIAGTLVMICMATPVFAIIIIPLSILYISVQVFYVATSRQLRRLDSVTKSPIYSHFSETVTGLPIIRAFEHQQRFLAWNEKQIDINQKCVFSWITSNRWLAIRLELVGNLVVFCSALLLVIYRKTLTGDVVGFVLSNALNITQTLNWLVRMTSEAETNIVAVERISEYINVENEAPWVTDKRPPADWPRHGEIQFNNYQVRYRPELDLVLKGITCNIKSGEKVGVVGRTGAGKSSLTNCLFRILESAGGQIIIDGIDVASIGLHDLRERLTIIPQDPILFSGSLRMNLDPFNKYSDEEVWRALELAHLRSFVSGLQLGLLSEVTEGGDNLSIGQRQLLCLGRAVLRKSKILVLDEATAAVDLETDSLIQTTIRKEFSQCTVITIAHRLHTIMDSDKIMVLDNGKIVEYGSPEELLSNRGSFYLMAKEAGIENVNHTEL | – | Km [3]: 15.1 µM; Km [4]: 6.46 µM; Km [5]: 97.8 µM |

More lines, in order of falling Ki [2], values ahead:

| Ki [2] [µM] | Molecule | also measured |
| --- | --- | --- |
| 40 | CC(C)C[C@H](NC(=O)N1CCCCCC1)C(=O)N[C@H](Cc1c[nH]c2ccccc12)C(=O)NC(C)CC(=O)O (stereo not given in full) | – |
| 8.32 | CC(C)C[C@H](NC(=O)N1CCCCCC1)C(=O)N[C@H](Cc1c[nH]c2ccccc12)C(=O)N[C@H](Cc1c[nH]c2ccccc12)C(=O)O | – |
| 1.01 | CC(C)C[C@@H]1NC(=O)[C@@H](C(C)C)NC(=O)[C@@H]2C[C@H](OC(=O)[C@@H](N)CCCNC(=N)N)CN2C(=O)[C@@H](CC(=O)O)NC(=O)[C@@H](Cc2c[nH]c3ccccc23)NC1=O | – |
